# Data published in US20220394979A1 (priority 2021, published 2022).
# Like-named read-outs stand apart in the source and are kept apart here.
# Columns and labels:
# C. perfringes = conditions: Ammonia at 0.1% w/w
# [1] = test system: parasites and protozoan oocysts; conditions: 20,000 mg/L ammonium phosphate, NH3 30 mg/L at pH 7.4, 300 mg/L at pH 8.4, cited from earlier work
# [2] = recommended storage conditions; cited from earlier work
# bacteria = conditions: quat 0.5% (5 g/L), cited from earlier work
# virus = conditions: quat 0.5% (5 g/L), cited from earlier work
compound,measurement,setting,value
N [Ammonia],level of C. perfringes after treatment,C. perfringes; raw biosolids at 1×10^7,less than 2×10^2
same,log reduction of spore forming bacteria and parasites,C. perfringes; raw biosolids,five log reductions
"N.N.O=P(O)(O)O [Ammonium Phosphate/Nonionized Ammonia, Ammonium Phosphate Dibasic]",Degree of Inactivation: log reduction of parasites and protozoan oocysts,[1],6 log reduction of parasites and
same,Degree of Inactivation: log reduction of parasites and protozoan oocysts,[1]; listed as Ammonium Phosphate,6 log reduction of
same,Storage stability,[2],Stable under recommended storage
C12-C14-alkyl (ethylbenzyl) dimethyl ammonium chloride [Quaternary Amines],Degree of Inactivation: log reduction of bacteria,bacteria,9 log reduction of bacteria
same,Degree of Inactivation: log reduction of bacteria,bacteria; listed as Quats,9 log reduction of
same,Degree of Inactivation: log reduction of virus,virus,"6 log reduction, of virus"
same,Degree of Inactivation: log reduction of virus,virus; listed as Quats,6 log reduction. of
